Target: T1, collagen I matrix (Bos taurus, UniProt P02453+P02465)
T1 construct: purchased PureCol (product name as printed)
Experiment: Gradient generation and characterization in the collagen I matrix of the culture chamber (fluorescence detection)
Experimental: Invasive angiogenic sprouting in three dimensions was studied by embedding organs or clusters of cells in a collagen I matrix composed of Ham's F12 medium (Promocell), 6.26 mM NaOH, 20 mM HEPES, 0.117% NaHCO3, 1% Glutamax-I (Gibco) and 1.5 mg/ml collagen I (PureCol). The flow channels were sealed prior to casting of the gel by the insertion of PDMS plugs. These were cut out a little wider than the channels (˜7×5×0.6 mm) to prevent the gel from leaking into the flow channels. The gel volume (20 μl) deposited in the culture chamber was approximately twice the size of the chamber volume to account for shrinkage and to make sure that the when the culture system was assembled the gel would be slightly compressed in order to occupy the entire culture chamber. […] The collagen gel was left to polymerize in a regular cell incubator at 37° C. and 5% CO2 for 2 hours. Organs or cell clusters were deposited into the center of the culture chamber using a Pasteur pipette in the beginning of the polymerization process. The tissue can be carefully positioned with a needle or by tapping the side of the culture chamber. Both organs and cells can be grown in the fluidic culture device in its open configuration with the culture chamber facing upwards for several days by adding cell media to cover the top of the open culture chamber.
Stock solutions of recombinant VEGFA165 (PeproTech), FGF2 (PeproTech) and VEGFC (R&D systems) were stored at −20° C. until further use. […]
Flow in the culture system was generated by connecting two syringes (connected to a syringe pump) to the channel inlets. […] No flow was recorded through the culture chamber when the flow rates in the source and sink channels were kept identical.
The gradient profile was initially characterized by detection of F-VEGFA. […] FIG. 10 illustrates time-lapse series of the central part of the culture chamber (1.7×1.3 mm) as a gradient of F-VEGFA is established; gradient formation in the culture chamber was detected by measuring the fluorescent signal. […] The profiles are recorded at the center of the chamber, indicated by black bar in FIG. 12. […]

[1] = collagen I matrix, flow 0.5 μl/min

T1 sequence (P02453 162-1217 limits assumed): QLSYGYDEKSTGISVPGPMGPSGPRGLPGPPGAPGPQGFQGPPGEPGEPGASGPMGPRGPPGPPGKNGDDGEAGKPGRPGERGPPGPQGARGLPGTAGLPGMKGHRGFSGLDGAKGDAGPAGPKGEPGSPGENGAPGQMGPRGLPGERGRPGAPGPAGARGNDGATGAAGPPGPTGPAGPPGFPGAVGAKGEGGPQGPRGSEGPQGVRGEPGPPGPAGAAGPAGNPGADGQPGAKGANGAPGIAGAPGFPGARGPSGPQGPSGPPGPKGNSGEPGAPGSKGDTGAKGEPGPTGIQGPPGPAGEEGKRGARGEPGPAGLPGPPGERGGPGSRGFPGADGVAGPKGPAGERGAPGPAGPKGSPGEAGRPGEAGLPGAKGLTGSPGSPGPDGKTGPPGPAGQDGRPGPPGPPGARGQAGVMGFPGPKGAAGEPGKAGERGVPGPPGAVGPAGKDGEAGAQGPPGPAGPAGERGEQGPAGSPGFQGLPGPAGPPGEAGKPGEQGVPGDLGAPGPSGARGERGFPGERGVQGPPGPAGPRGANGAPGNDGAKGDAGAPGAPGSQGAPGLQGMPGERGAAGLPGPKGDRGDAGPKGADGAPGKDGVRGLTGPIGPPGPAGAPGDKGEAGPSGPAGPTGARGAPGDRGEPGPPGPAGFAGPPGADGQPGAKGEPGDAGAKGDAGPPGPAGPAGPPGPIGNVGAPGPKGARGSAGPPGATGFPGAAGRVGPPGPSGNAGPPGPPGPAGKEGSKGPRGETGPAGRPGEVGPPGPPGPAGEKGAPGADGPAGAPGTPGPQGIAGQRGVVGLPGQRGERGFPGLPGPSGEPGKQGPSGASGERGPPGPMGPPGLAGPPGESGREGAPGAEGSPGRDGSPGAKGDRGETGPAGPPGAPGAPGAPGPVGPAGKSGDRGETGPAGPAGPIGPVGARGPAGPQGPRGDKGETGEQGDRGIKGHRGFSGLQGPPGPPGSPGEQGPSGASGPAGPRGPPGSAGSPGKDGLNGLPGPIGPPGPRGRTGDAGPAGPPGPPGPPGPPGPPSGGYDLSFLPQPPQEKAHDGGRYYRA
T1 sequence (P02465 80-1117 limits assumed): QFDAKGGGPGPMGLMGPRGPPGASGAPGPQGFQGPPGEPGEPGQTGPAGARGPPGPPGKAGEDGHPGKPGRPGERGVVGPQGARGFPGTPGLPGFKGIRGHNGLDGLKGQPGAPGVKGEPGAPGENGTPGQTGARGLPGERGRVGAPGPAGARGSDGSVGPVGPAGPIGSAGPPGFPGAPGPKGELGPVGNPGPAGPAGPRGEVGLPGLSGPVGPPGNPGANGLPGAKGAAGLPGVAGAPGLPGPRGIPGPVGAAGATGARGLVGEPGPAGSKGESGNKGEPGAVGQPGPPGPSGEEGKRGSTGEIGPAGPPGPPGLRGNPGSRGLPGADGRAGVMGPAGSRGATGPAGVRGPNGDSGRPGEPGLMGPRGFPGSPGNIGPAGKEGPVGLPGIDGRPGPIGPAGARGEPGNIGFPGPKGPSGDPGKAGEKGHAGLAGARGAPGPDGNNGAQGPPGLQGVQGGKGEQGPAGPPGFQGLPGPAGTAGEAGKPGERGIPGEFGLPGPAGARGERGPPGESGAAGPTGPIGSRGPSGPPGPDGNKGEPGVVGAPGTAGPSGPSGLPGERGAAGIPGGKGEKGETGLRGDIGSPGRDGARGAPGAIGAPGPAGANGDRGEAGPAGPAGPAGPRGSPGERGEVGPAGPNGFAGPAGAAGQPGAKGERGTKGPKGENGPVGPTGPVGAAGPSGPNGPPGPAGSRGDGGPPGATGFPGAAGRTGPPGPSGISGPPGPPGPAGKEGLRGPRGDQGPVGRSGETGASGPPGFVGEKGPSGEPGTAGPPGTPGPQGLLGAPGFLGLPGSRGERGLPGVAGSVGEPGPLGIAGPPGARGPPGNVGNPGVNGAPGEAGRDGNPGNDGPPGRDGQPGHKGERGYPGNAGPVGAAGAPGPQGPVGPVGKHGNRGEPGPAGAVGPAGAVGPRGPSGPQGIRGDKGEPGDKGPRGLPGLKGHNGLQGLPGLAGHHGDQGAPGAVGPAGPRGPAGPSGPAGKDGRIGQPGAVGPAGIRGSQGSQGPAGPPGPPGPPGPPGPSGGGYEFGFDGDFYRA

Substance: FITC-dextran
- affinity for collagen I (accumulation at the edge of the gel) (1.5 mg/ml collagen I matrix): little or no affinity for collagen I
- time after which the gradient was stable [1]: approximately 6 hours
- time to formation of a linear gradient after onset of flow [1]: ≤ 2 h

Reference: patent US20110217771A1, “Fluidic Culture Device” (priority 2008, published 2011)
